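Tested at 5 concentrations; 48 h exposure; 96-well plates; endpoints linearly interpolated, else capped at highest concentration. At the GI50, growth is halved.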 Activity calls are given as the source filed them. Rule as the data show it: active = GI50 up to about 1.1 µM and inactive = higher.
Legend:
Test in all cases: DTP human tumour cell line panel, 48 h
786-0 = test system: 786-0
A498 = test system: A498
A549 = test system: A549
ACHN = test system: ACHN
BT-549 = test system: BT-549
CAKI-1 = test system: CAKI-1
CCRF-CEM = test system: CCRF-CEM
COLO 205 = test system: COLO 205
DU-145 = test system: DU-145
EKVX = test system: EKVX
HCC 2998 = test system: HCC 2998
HCT-116 = test system: HCT-116
HCT-15 = test system: HCT-15
HL-60 = test system: HL-60
HOP-62 = test system: HOP-62
HOP-92 = test system: HOP-92
HT-29 = test system: HT-29
Hs-578T = test system: Hs-578T
IGROV-1 = test system: IGROV-1
K562 = test system: K562
KM12 = test system: KM12
LOX IMVI = test system: LOX IMVI
MCF7 = test system: MCF7
MDA-MB-231 = test system: MDA-MB-231
MDA-MB-435 = test system: MDA-MB-435
MDA-N = test system: MDA-N
MOLT-4 = test system: MOLT-4
Malme-3M = test system: Malme-3M
NCI-H226 = test system: NCI-H226
NCI-H23 = test system: NCI-H23
NCI-H460 = test system: NCI-H460
NCI-H522 = test system: NCI-H522
NCI/ADR-RES = test system: NCI/ADR-RES
OVCAR-3 = test system: OVCAR-3
OVCAR-4 = test system: OVCAR-4
OVCAR-5 = test system: OVCAR-5
OVCAR-8 = test system: OVCAR-8
PC-3 = test system: PC-3
RPMI-8226 = test system: RPMI-8226
RXF 393 = test system: RXF 393
SF-268 = test system: SF-268
SF-295 = test system: SF-295
SF-539 = test system: SF-539
SK-MEL-28 = test system: SK-MEL-28
SK-MEL-2 = test system: SK-MEL-2
SK-MEL-5 = test system: SK-MEL-5
SK-OV-3 = test system: SK-OV-3
SN12C = test system: SN12C
SNB-19 = test system: SNB-19
SR = test system: SR
SW-620 = test system: SW-620
TK-10 = test system: TK-10
U-251 = test system: U-251
UACC-257 = test system: UACC-257
UACC-62 = test system: UACC-62
UO-31 = test system: UO-31
M14 = test system: M14
SNB-75 = test system: SNB-75
T47D = test system: T47D

## N#CSC#Cc1ccc(C#CSC#N)cc1
786-0
  GI50: 17.2 µM (inactive)
A498
  GI50: 20.2 µM (inactive)
A549
  GI50: 17.8 µM (inactive)
ACHN
  GI50: 16.5 µM (inactive)
BT-549
  GI50: 17.9 µM (inactive)
CAKI-1
  GI50: 16.1 µM (inactive)
CCRF-CEM
  GI50: 10.1 µM (inactive)
COLO 205
  GI50: 18.2 µM (inactive)
DU-145
  GI50: 15.1 µM (inactive)
EKVX
  GI50: 18.5 µM (inactive)
HCC 2998
  GI50: 17.6 µM (inactive)
HCT-116
  GI50: 19 µM (inactive)
HCT-15
  GI50: 19.4 µM
HL-60
  GI50: 54.8 µM (inactive)
HOP-62
  GI50: 23 µM (inactive)
HOP-92
  GI50: 12.5 µM (inactive)
HT-29
  GI50: 20.1 µM (inactive)
Hs-578T
  GI50: 15.7 µM (inactive)
IGROV-1
  GI50: 15.5 µM (inactive)
K562
  GI50: 39.1 µM (inactive)
KM12
  GI50: 19.4 µM (inactive)
LOX IMVI
  GI50: 16.3 µM (inactive)
MCF7
  GI50: 19.9 µM (inactive)
MDA-MB-231
  GI50: 17.8 µM (inactive)
MDA-MB-435
  GI50: 20.9 µM (inactive)
MDA-N
  GI50: 17.8 µM (inactive)
MOLT-4
  GI50: 36.2 µM (inactive)
Malme-3M
  GI50: 19.1 µM (inactive)
NCI-H226
  GI50: 21.6 µM (inactive)
NCI-H23
  GI50: 18.7 µM (inactive)
NCI-H460
  GI50: 19.9 µM (inactive)
NCI-H522
  GI50: 11.1 µM (inactive)
NCI/ADR-RES
  GI50: 19.2 µM (inactive)
OVCAR-3
  GI50: 19.3 µM (inactive)
OVCAR-4
  GI50: 8.81 µM (inactive)
OVCAR-5
  GI50: 19.2 µM (inactive)
OVCAR-8
  GI50: 19.6 µM (inactive)
PC-3
  GI50: 15.6 µM (inactive)
RPMI-8226
  GI50: > 100 µM (inactive)
RXF 393
  GI50: 18.7 µM (inactive)
SF-268
  GI50: 21.5 µM (inactive)
SF-295
  GI50: 20.9 µM (inactive)
SF-539
  GI50: 20.9 µM (inactive)
SK-MEL-28
  GI50: 26.2 µM (inactive)
SK-MEL-2
  GI50: 20.2 µM (inactive)
SK-MEL-5
  GI50: 18.2 µM (inactive)
SK-OV-3
  GI50: 22.6 µM (inactive)
SN12C
  GI50: 18 µM (inactive)
SNB-19
  GI50: 21.3 µM (inactive)
SR
  GI50: 51.5 µM (inactive)
SW-620
  GI50: 19.2 µM (inactive)
TK-10
  GI50: 16.6 µM (inactive)
U-251
  GI50: 21.5 µM (inactive)
UACC-257
  GI50: 17.3 µM (inactive)
UACC-62
  GI50: 18.1 µM (inactive)
UO-31
  GI50: 17.2 µM (inactive)

## Cc1ccc(/N=N/N(C)C(=O)C(C)N)cc1 (stereo not given)
786-0
  GI50: > 100 µM (inactive)
ACHN
  GI50: > 100 µM (inactive)
BT-549
  GI50: > 100 µM (inactive)
CAKI-1
  GI50: > 100 µM (inactive)
CCRF-CEM
  GI50: > 100 µM (inactive)
COLO 205
  GI50: > 100 µM (inactive)
DU-145
  GI50: > 100 µM (inactive)
EKVX
  GI50: > 100 µM (inactive)
HCC 2998
  GI50: > 100 µM (inactive)
HCT-116
  GI50: > 100 µM (inactive)
HCT-15
  GI50: > 100 µM
HL-60
  GI50: > 100 µM (inactive)
HOP-62
  GI50: > 100 µM (inactive)
HOP-92
  GI50: > 100 µM (inactive)
HT-29
  GI50: > 100 µM (inactive)
IGROV-1
  GI50: > 100 µM (inactive)
K562
  GI50: > 100 µM (inactive)
KM12
  GI50: > 100 µM (inactive)
LOX IMVI
  GI50: > 100 µM (inactive)
M14
  GI50: > 100 µM (inactive)
MCF7
  GI50: > 100 µM (inactive)
MDA-MB-435
  GI50: > 100 µM (inactive)
MDA-N
  GI50: > 100 µM (inactive)
MOLT-4
  GI50: > 100 µM (inactive)
Malme-3M
  GI50: > 100 µM (inactive)
NCI-H226
  GI50: > 100 µM (inactive)
NCI-H23
  GI50: > 100 µM (inactive)
NCI-H460
  GI50: > 100 µM (inactive)
NCI-H522
  GI50: 60.1 µM (inactive)
NCI/ADR-RES
  GI50: > 100 µM (inactive)
OVCAR-3
  GI50: > 100 µM (inactive)
OVCAR-4
  GI50: > 100 µM (inactive)
OVCAR-5
  GI50: > 100 µM (inactive)
OVCAR-8
  GI50: > 100 µM (inactive)
PC-3
  GI50: > 100 µM (inactive)
RPMI-8226
  GI50: 16.1 µM (inactive)
RXF 393
  GI50: > 100 µM (inactive)
SF-268
  GI50: > 100 µM (inactive)
SF-295
  GI50: > 100 µM (inactive)
SF-539
  GI50: > 100 µM (inactive)
SK-MEL-28
  GI50: > 100 µM (inactive)
SK-MEL-2
  GI50: > 100 µM (inactive)
SK-MEL-5
  GI50: > 100 µM (inactive)
SN12C
  GI50: > 100 µM (inactive)
SNB-19
  GI50: > 100 µM (inactive)
SNB-75
  GI50: > 100 µM (inactive)
SR
  GI50: 26.9 µM (inactive)
SW-620
  GI50: 8.53 µM (inactive)
T47D
  GI50: > 100 µM (inactive)
TK-10
  GI50: > 100 µM (inactive)
U-251
  GI50: > 100 µM (inactive)
UACC-257
  GI50: > 100 µM (inactive)
UACC-62
  GI50: > 100 µM (inactive)
UO-31
  GI50: 34.4 µM (inactive)

## CC(C)(/C=N\O)NO
786-0
  GI50: > 10 µM (inactive)
A549
  GI50: > 10 µM (inactive)
ACHN
  GI50: > 10 µM (inactive)
BT-549
  GI50: > 10 µM (inactive)
CAKI-1
  GI50: > 10 µM (inactive)
CCRF-CEM
  GI50: > 10 µM (inactive)
COLO 205
  GI50: > 10 µM (inactive)
DU-145
  GI50: > 10 µM (inactive)
EKVX
  GI50: > 10 µM (inactive)
HCC 2998
  GI50: > 10 µM (inactive)
HCT-116
  GI50: > 10 µM (inactive)
HCT-15
  GI50: > 10 µM
HL-60
  GI50: > 10 µM (inactive)
HOP-62
  GI50: > 10 µM (inactive)
HOP-92
  GI50: > 10 µM (inactive)
HT-29
  GI50: > 10 µM (inactive)
K562
  GI50: > 10 µM (inactive)
KM12
  GI50: > 10 µM (inactive)
LOX IMVI
  GI50: > 10 µM (inactive)
M14
  GI50: > 10 µM (inactive)
MCF7
  GI50: > 10 µM (inactive)
MDA-MB-231
  GI50: > 10 µM (inactive)
MDA-MB-435
  GI50: > 10 µM (inactive)
MDA-N
  GI50: > 10 µM (inactive)
MOLT-4
  GI50: > 10 µM (inactive)
Malme-3M
  GI50: > 10 µM (inactive)
NCI-H226
  GI50: > 10 µM (inactive)
NCI-H23
  GI50: > 10 µM (inactive)
NCI-H460
  GI50: > 10 µM (inactive)
NCI-H522
  GI50: > 10 µM (inactive)
NCI/ADR-RES
  GI50: > 10 µM (inactive)
OVCAR-3
  GI50: > 10 µM (inactive)
OVCAR-4
  GI50: > 10 µM (inactive)
OVCAR-5
  GI50: > 10 µM (inactive)
OVCAR-8
  GI50: > 10 µM (inactive)
PC-3
  GI50: > 10 µM (inactive)
RPMI-8226
  GI50: > 10 µM (inactive)
RXF 393
  GI50: > 10 µM (inactive)
SF-268
  GI50: > 10 µM (inactive)
SF-295
  GI50: > 10 µM (inactive)
SK-MEL-2
  GI50: > 10 µM (inactive)
SN12C
  GI50: > 10 µM (inactive)
SNB-19
  GI50: > 10 µM (inactive)
SR
  GI50: > 10 µM (inactive)
SW-620
  GI50: > 10 µM (inactive)
T47D
  GI50: > 10 µM (inactive)
TK-10
  GI50: > 10 µM (inactive)
U-251
  GI50: > 10 µM (inactive)
UACC-257
  GI50: > 10 µM (inactive)
UO-31
  GI50: > 10 µM (inactive)

Reference: ChEMBL document CHEMBL1201862, “PubChem BioAssay data set” (2004)
